Experimental data: patent publication US8956589B2, “Imaging diagnostic agent and extracorporeal diagnostic agent for incurable neurological diseases” (Shiga University of Medical Science, priority 2009, dated 2015)
pIC50: −log10 of the molar value.

How the values were obtained:
[1] = biological target: amyloid β peptide aggregates (1-40) (Homo sapiens (Human), UniProt P05067); format: binding; details: for pIC50: aggregates 1 μM, thioflavin-T 3 μM, compound 0.02 to 20 μM, 30 minutes at 23° C., read-out: Amyloid binding property (IC50); for binding to amyloid β peptide aggregates (in words): thioflavin-T fluorescence inhibition
Description: The binding capacity of the compounds to an amyloid β peptide aggregate was quantitatively measured by a thioflavin-T fluorescence inhibition test. […] The resultant solution was cause to react for 30 minutes at 23° C. with the light shielded. Then, the fluorescence of thioflavin-T was measured under a condition of Ex=440 nm, Em=490 nm, Cutoff filter=475 nm. The IC50 values were calculated by using an analysis software, GraphPad PRISM Ver.5 (GraphPad Software, Inc.).

[2] = biological target: amyloid β peptide aggregates (Homo sapiens (Human), UniProt P05067); test: Binding to and release from precipitated amyloid β peptide aggregates (absorbance of supernatant); details: compound 2 μg/mL in phosphate buffer, 1 hour reaction
Description: Each of compound 23, compound 1, and compound 24 is dissolved at a concentration of 2 μg/mL, in a phosphate buffer, and then amyloid β peptide aggregates are added to each solution, and the resultant solution is caused to react for 1 hour. Then, the solution is centrifuged for 10 minutes at 6,000 rpm, to separate the amyloid β peptide aggregates. A supernatant was removed, and an absorbance measurement was performed to measure the quantity of the compound that had not bound to the amyloid peptide aggregates and that were contained in the supernatant. The obtained quantity was subtracted from the original quantity of the compound, whereby the quantity of the compound that had bound to the amyloid β peptide aggregates was calculated.
Next, the precipitated amyloid β peptide aggregates were washed, a buffer was added thereto, and the quantity of the compound that got released was measured. Then, the rate of the compound that had bound to amyloid β peptide aggregates and then was eluted into the buffer was calculated using the original quantity of the compound as 100%.

amyloid β peptide aggregates (1-40), sequence (P05067 672-711): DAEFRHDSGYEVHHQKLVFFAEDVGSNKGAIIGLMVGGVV
amyloid β peptide aggregates, sequence (P05067 672-711): as above

| pIC50 ([1]; pH 7.4) | melting point | binding to amyloid β peptide aggregates (in words) [1] | binding rate to amyloid β peptide aggregates [2] [%] | solubility remark in amyloid binding test ([1]; pH 7.4) | SMILES |
| --- | --- | --- | --- | --- | --- |
| 5.89 |  |  |  |  | O=C(O)CCC(C(=O)/C=C/c1ccc(O)c(OC(F)(F)F)c1)C(=O)/C=C/c1ccc(O)c(OC(F)(F)F)c1 [Compound 2, 1,7-bis(4′-hydroxy-3′-trifluoromethoxyphenyl)-4-carboxylethyl-1,6-heptadiene-3,5-dione] |
|  | 170 to 171 °C |  |  |  | COC(=O)CCC(C(=O)/C=C/c1ccc(OC)c(F)c1)C(=O)/C=C/c1ccc(OC)c(F)c1 [Compound 3] |
|  | 171 to 172 °C |  |  |  | COc1ccc(/C=C/C(=O)C(CCC(=O)O)C(=O)/C=C/c2ccc(OC)c(F)c2)cc1F [Compound 4] |
| 6.28 | 140 to 141 °C |  |  |  | COC(=O)CC(C(=O)/C=C/c1ccc(O)c(OC(F)(F)F)c1)C(=O)/C=C/c1ccc(O)c(OC(F)(F)F)c1 [Compound 5] |
| 6.51 | 147 to 148 °C |  |  |  | COC(=O)CCCC(C(=O)/C=C/c1ccc(O)c(OC(F)(F)F)c1)C(=O)/C=C/c1ccc(O)c(OC(F)(F)F)c1 [Compound 6] |
| 6.85 | 179 to 180 °C |  |  |  | CCOC(=O)C(C(=O)/C=C/c1ccc(O)c(OC(F)(F)F)c1)C(=O)/C=C/c1ccc(O)c(OC(F)(F)F)c1 [Compound 7] |
| 6.42 | 155 to 156 °C |  |  |  | CCOC(=O)CCC(C(=O)/C=C/c1ccc(O)c(OC(F)(F)F)c1)C(=O)/C=C/c1ccc(O)c(OC(F)(F)F)c1 [Compound 8] |
| 6.19 | 175 °C |  |  |  | CC(C)(C)OC(=O)CCC(C(=O)/C=C/c1ccc(O)c(OC(F)(F)F)c1)C(=O)/C=C/c1ccc(O)c(OC(F)(F)F)c1 [Compound 9] |
|  | 191 °C |  |  |  | CC(C)OC(=O)CCC(C(=O)/C=C/c1ccc(O)c(OC(F)(F)F)c1)C(=O)/C=C/c1ccc(O)c(OC(F)(F)F)c1 [Compound 10] |
|  | 178 to 179 °C |  |  |  | COC(=O)CCC(C(=O)/C=C/c1cc(F)c(O)c(F)c1)C(=O)/C=C/c1cc(F)c(O)c(F)c1 [Compound 11] |
|  | > 200 °C |  |  |  | COc1ccc(/C=C/C(=O)C(CCC(=O)[O-])C(=O)/C=C/c2ccc(OC)c(F)c2)cc1F.[Na+] [Compound 12] |
| 6.44 | 183 °C |  |  |  | COC(=O)CCC(C(=O)/C=C/c1ccc(O)c(C(F)(F)F)c1)C(=O)/C=C/c1ccc(O)c(C(F)(F)F)c1 [Compound 14] |
| 6.52 | 134 to 135 °C |  |  |  | N#CCCC(C(=O)/C=C/c1ccc(O)c(OC(F)(F)F)c1)C(=O)/C=C/c1ccc(O)c(OC(F)(F)F)c1 [Compound 15] |
| 6.49 | 178 to 179 °C |  |  |  | CC(C(=O)/C=C/c1ccc(O)c(OC(F)(F)F)c1)C(=O)/C=C/c1ccc(O)c(OC(F)(F)F)c1 [Compound 16] |
|  | 124 to 126 °C |  |  |  | COC(=O)CCC(C(=O)/C=C/c1ccc(O)c(OC(F)(F)F)c1)C(=O)/C=C/c1ccc(OC(C)=O)c(OC(F)(F)F)c1 (centres unmarked) [Compound 18] |
| 6.30 |  |  |  |  | COCOCCCC(C(=O)/C=C/c1ccc(O)c(OC(F)(F)F)c1)C(=O)/C=C/c1ccc(O)c(OC(F)(F)F)c1 [Compound 20] |
| 6.30 | 192 to 193 °C |  |  |  | CN(C)C(=O)CCC(C(=O)/C=C/c1ccc(O)c(OC(F)(F)F)c1)C(=O)/C=C/c1ccc(O)c(OC(F)(F)F)c1 [Compound 21] |
| 6.15 | 112 to 114 °C |  |  |  | O=C(/C=C/c1ccc(O)c(OC(F)(F)F)c1)C(CCOCCO)C(=O)/C=C/c1ccc(O)c(OC(F)(F)F)c1 [Compound 22, 1,7-bis(4′-hydroxy-3′-trifluoromethoxyphenyl)-4-(2′-hydroxyethoxyethyl)-1,6-heptadiene-3,5-dione] |
| 6.68 | 172 to 173 °C | strongly bound | 85 |  | O=C(/C=C/c1ccc(O)c(OC(F)(F)F)c1)CC(=O)/C=C/c1ccc(O)c(OC(F)(F)F)c1 [Compound 23] |
| < 4.82 |  | scarcely bound | 27 |  | CC(C)(C(=O)/C=C/c1ccc(O)c(OC(F)(F)F)c1)C(=O)/C=C/c1ccc(O)c(OC(F)(F)F)c1 [Compound 24, reference compound] |
| 6.85 | 88 to 90 °C |  |  |  | COC(=O)COc1ccc(/C=C/C(=O)CC(=O)/C=C/c2ccc(O)c(OC)c2)cc1OC [Compound 25] |
| 6.51 | 190 to 192 °C (dec.) |  |  |  | COc1cc(/C=C/C(=O)CC(=O)/C=C/c2ccc(OCC(=O)O)c(OC)c2)ccc1O [Compound 26] |
| 6.89 | 200 °C |  |  |  | COc1cc(/C=C/C(=O)CC(=O)/C=C/c2ccc(O)c(C(F)(F)F)c2)ccc1O [Compound 27] |
| 5.24 | 192 to 194 °C |  |  | hardly soluble | CNc1ccc(/C=C/C(=O)CC(=O)/C=C/c2ccc(NC)c(C(F)(F)F)c2)cc1C(F)(F)F [Compound 28] |
| 7.00 | 187 to 189 °C |  |  |  | COc1cc(/C=C/C(=O)CC(=O)/C=C/c2cncc(C(F)(F)F)c2)ccc1O [Compound 29] |
| 6.19 | 141 °C |  |  |  | COC(=O)CCC(C(=O)/C=C/c1ccc(O)c(OC(F)(F)F)c1)C(=O)/C=C/c1ccco1 (centres unmarked) [Compound 30] |

| SMILES | pIC50 ([1]; pH 7.4) | melting point | binding to amyloid β peptide aggregates (in words) [1] | binding rate to amyloid β peptide aggregates [2] [%] | solubility remark in amyloid binding test ([1]; pH 7.4) |
| --- | --- | --- | --- | --- | --- |
| CC(=O)OCCCC(C(=O)/C=C/c1ccc(O)c(OC(F)(F)F)c1)C(=O)/C=C/c1ccc(O)c(OC(F)(F)F)c1 [Compound 13, 1,7-bis(4′-hydroxy-3′-trifluoromethoxyphenyl)-4-acetoxypropyl-1,6-heptadiene-3,5-dione] |  | 130 to 131 °C |  |  |  |
| COC(=O)CCC(C(=O)C=Cc1ccc(OC(C)=O)c(OC(F)(F)F)c1)C(=O)C=Cc1ccc(OC(C)=O)c(OC(F)(F)F)c1 (centres unmarked) [Compound 17, 1,7-bis(4′-acetoxy-3′-trifluoromethoxyphenyl)-4-methoxycarbonylethyl-1,6-heptadiene-3,5-dione] |  | 149 to 150 °C |  |  |  |
